From the NIST ThermoML archive (doi:10.1021/acs.jced.8b01004)
Numbers after ± are expanded uncertainties.

Columns and labels:
[1] = 100 kPa, Liquid; for viscosity: Falling or rolling sphere viscometry; for mass density: Vibrating tube method
[2] = xn = mol fraction of the nth substance listed; settings: 100 kPa, Liquid; for viscosity: Falling or rolling sphere viscometry; for mass density: Vibrating tube method

OC1CCCC1 [cyclopentanol]
[1]
Settings | mass density [kg/m3] | viscosity [mPa·s]
293.15 K | 946.99 ± 1.5 | 11.88 ± 0.25
298.15 K | 943.05 ± 1.5 | 9.722 ± 0.21
303.15 K | 939.05 ± 1.5 | 8.068 ± 0.17
308.15 K | 935.01 ± 1.5 | 7.077 ± 0.15
313.15 K | 930.91 ± 1.5 | 6.04 ± 0.13
318.15 K | 926.75 ± 1.5 | 5.19 ± 0.11
323.15 K | 922.53 ± 1.5 | 4.441 ± 0.095
328.15 K | 918.24 ± 1.5 | 3.83 ± 0.082
333.15 K | 913.89 ± 1.5 | 3.312 ± 0.07
338.15 K | 909.48 ± 1.5 | 2.886 ± 0.061
343.15 K | 904.99 ± 1.4 | 2.53 ± 0.054

CC1CCCCC1 [methylcyclohexane]
[1]
Settings | mass density [kg/m3] | viscosity [mPa·s]
293.15 K | 769.35 ± 1.2 | 0.735 ± 0.016
298.15 K | 765 ± 1.2 | 0.689 ± 0.015
303.15 K | 760.65 ± 1.2 | 0.647 ± 0.014
308.15 K | 756.3 ± 1.2 | 0.611 ± 0.013
313.15 K | 751.93 ± 1.2 | 0.577 ± 0.012
318.15 K | 747.56 ± 1.2 | 0.547 ± 0.012
323.15 K | 743.16 ± 1.2 | 0.519 ± 0.011
328.15 K | 738.74 ± 1.2 | 0.495 ± 0.011
333.15 K | 734.29 ± 1.2 | 0.473 ± 0.01
338.15 K | 729.82 ± 1.2 | 0.453 ± 0.01
343.15 K | 725.32 ± 1.2 | 0.434 ± 0.009

C1CC[C@H]2CCCC[C@H]2C1 [cis-decahydronaphthalene] + C1CC[C@H]2CCCC[C@@H]2C1
[2], x1 = 0.5
Settings | mass density [kg/m3] | viscosity [mPa·s]
293.15 K | 880.41 ± 44 | 2.488 ± 0.054
298.15 K | 876.64 ± 44 | 2.255 ± 0.049
303.15 K | 872.86 ± 44 | 2.054 ± 0.044
308.15 K | 869.1 ± 43 | 1.88 ± 0.04
313.15 K | 865.33 ± 43 | 1.727 ± 0.037
318.15 K | 861.56 ± 43 | 1.592 ± 0.034
323.15 K | 857.8 ± 43 | 1.473 ± 0.032
328.15 K | 854.02 ± 43 | 1.367 ± 0.029
333.15 K | 850.25 ± 43 | 1.272 ± 0.027
338.15 K | 846.47 ± 42 | 1.188 ± 0.026
343.15 K | 842.68 ± 42 | 1.111 ± 0.024

CC1CCCCC1 [methylcyclohexane] + OC1CCCC1
[2], x1 = 1
Settings | mass density [kg/m3] | viscosity [mPa·s]
293.15 K | 769.35 ± 1.2 | 0.735 ± 0.016
298.15 K | 765 ± 1.2 | 0.689 ± 0.015
303.15 K | 760.65 ± 1.2 | 0.647 ± 0.014
308.15 K | 756.3 ± 1.2 | 0.611 ± 0.013
313.15 K | 751.93 ± 1.2 | 0.577 ± 0.012
318.15 K | 747.56 ± 1.2 | 0.547 ± 0.012
323.15 K | 743.16 ± 1.2 | 0.519 ± 0.011
328.15 K | 738.74 ± 1.2 | 0.495 ± 0.011
333.15 K | 734.29 ± 1.2 | 0.473 ± 0.01
338.15 K | 729.82 ± 1.2 | 0.453 ± 0.01
343.15 K | 725.32 ± 1.2 | 0.434 ± 0.009
